These results are taken from patent publication US7749496B2, “Neuronal regeneration” (Case Western Reserve University, priority 2001, dated 2010).

Common to all, as to format: cell-based
The subject of one test is NG108-15 cells. Description: Neurite crossing of laminin/aggrecan (CSPG) boundary after protein transduction. The following applies: for neurite extension across laminin/CSPG boundary: vs controls. An excerpt:
We developed a second model to observe the effects of substrate-bound GAGs or CSPGs on neurite extension. Briefly, alternating lanes of the CSPG aggrecan and laminin were created on 60 mm diameter tissue culture dishes using a modified version of the Bonhoeffer method. Thus, neurite extension of cells across laminin/CSPG boundaries could be observed in these coated tissue culture dishes. Such laminin/CSPG coated dishes were used for the experiments summarized in the following examples and in FIGS. 7-10.
NG108-15 cells (available from ATCC, Manassas, Va.) were removed from culture flasks and resuspended in Neurobasal-A media (Invitrogen, Carlsbad, Calif.) supplemented with N-2, L-glutamine, and 1% penicillin/streptomycin. 2×10^4 NG108-15 cells were added to a laminin/CSPG coated dish as described in Example 8. After approximately 4 hours, the cells formed lanes adhering to the laminin lanes. The ability of the cells to migrate and/or extend processes across the laminin/CSPG boundary was then assessed following transduction of the cells with control proteins, with various Class I activator proteins, or with a Class 2 inhibitor protein.
Cells were transduced using the CHARIOT protein transduction system with any one of the following: GST control alone, activated Cdc42-GST, dominant negative Cdc42-GST, activated Rac1-GST, dominant negative Rac1-GST, activated RhoA-GST, or the RhoA inhibitor C3 transferase (Cytoskeleton, Denver, Colo.). The activated and dominant negative variants used for these experiments were as following: activated Cdc42=Q61L Cdc42, dominant negative Cdc42=T17N Cdc42, activated Rac1=Q61L Rac1, dominant negative Rac1=T17N […], activated RhoA=Q63 L RhoA. Following protein transduction, cells were placed in humidified incubators at 37° C., and 5% CO2 and were […] after 48 hours.

The subject of a further test is E9 chick DRG. Description: Three-dimensional layered agarose gel, neurite crossing of gel interfaces. The following applies: for percentage of DRG neurites that cross the interface between 2 layers: interface of 1% agarose and 2% agarose modified with chondroitin sulfate, compared to non-GAG agarose interface, FIG. 3.
The test system of the next test is NG108 cells. Description: Two dimensional coverslip with alternating stripes of chondroitin sulfate, crossing of short axis. The following applies: protein delivered with Chariot protein transduction system; unmodified cells less than 10%; FIG. 5A. An excerpt:
We developed a two-dimensional model to observe the effects of substrate-bound GAGs or CSPGs on neurite extension. Briefly, the surfaces of glass coverslips were modified using 3-aminopropyltriethoxysilane, which binds amines to the surface. Through a two-step covalent coupling procedure, chondroitin sulfate C(CS-C) was crosslinked to the amines on the surface of the coverslip. First, CS-C was linked to EDAC, a zero-length crosslinker, that reacts with amine groups. With the aid of the Bonhoeffer matrix the CS-C-EDAC solution was passed into the microchannels incubated at room temperature for 30 minutes and removed. This process was repeated three additional times with fresh CS-C-EDAC solution. The CS-C covalently couple to the amines on the modified coverslip via the EDAC.
The coverslips were sonicated for 5 minutes to remove any CS-C that was not covalently bound to the coverslip. The coverslips were sterilized in 70% ethanol, and 15,000 cells were seeded on top of the micropatterned area and incubated at 37° C., 5% CO2. The behavior of the seeded cells can now be examined in the presence or absence of agents which either influence the cells themselves (e.g., Class I activators, Class II inhibitors, etc.) or agents which alter the CS-C. […]

Where [1] appears, read: Chariot transduction, imaged after 48 hours, vs untransduced or GST alone, FIG. 7.

Description for E9 chick DRG: This three-dimensional system allows observation of neuronal cell behavior at gel interfaces. In this example, layer 1 is a control interface composed of 1% agarose, layer 2 contains the neuronal explant, in this case an explant of dorsal root ganglia (DRG) in 1% agarose, and layer 3 is 2% agarose containing chondroitin sulfate-B. The layer 1/layer 2 interface provides a control agarose/agarose interface, while the layer 2/layer 3 interface provides an agarose/CS-GAG rich agarose interface. The ability of neurites to cross the interface between layer 2/layer 3 can be measured.
Agarose gels were made by dissolving SeaPrep agarose (FMC Corp) in pH 7.4 PBS. Agarose solutions were sterilized by p assing through a 0.45 u m filter, gelled and stored at 4° C. Prior to use, the gels were degelled at 65° C., cooled to 37° C., and gelled.
For construction of three dimensional system, agarose gels were layered in a rectangular culture dish. 1% liquid agarose was poured into the dish, and chilled to allow layer 1 to gel. After layer 1 had gelled, liquid agarose containing several E9 chick DRG were poured onto layer 1, and chilled to form layer 2. After layer 2 had gelled, 2% liquid agarose containing chondroitin sulfate-B was poured onto layer 2 and chilled to form layer 3.
To maintain the cells in this culture system, culture medium consisting of DMEM supplemented with 10% fetal bovine serum, 1% penicillin-streptomycin, and 50 ng/mL nerve growth factor was added to the top of the gel.
The ability of neuronal cells to extend processes across the interfaces was quantified by determining the percentage of neurites that successfully crossed the interface using light microscopy.

For the substance C3 transferase, the “neurite extension across laminin/CSPG boundary” value in the test with NG108-15 cells (2 μg/mL, FIG. 10) is “statistically significant”; in the test on NG108-15 cells (4 μg/mL, FIG. 10) it was “statistically significant”. Moreover, the “percentage of neurites that cross a laminin/aggrecan boundary” value in the test on NG108-15 cells (setting [1]) is “statistically significant increase”. Moreover, in the test on NG108-15 cells (various concentrations, in the presence of Chariot, FIG. 10), the “dose dependence of neurite crossing of laminin/aggrecan boundary” value is “statistically significant and dose dependent increase”.

Consider “activated RhoA: Q63L RhoA constitutively active Rho family GTPase variant, GST protein”, for which, in the test on NG108-15 cells (setting [1]), the “percentage of neurites that cross a laminin/aggrecan boundary” value is on record as “did not significantly promote”.

As for chondroitin-sulfate B, the results for the “percentage of DRG neurites that cross the interface between 2 layers” value with E9 chick DRG and in the test on E9 chick DRG (listed as CS-GAG) were “statistically significant decrease” and “significantly inhibited”, respectively. For the same substance, the “extension of neuronal processes at the layer 2/layer 3 interface” value in the test with E9 chick DRG (layer 3 is 2% agarose modified with chondroitin sulfate B, FIG. 2C) is “inhibited”.

In the case of “constitutively active Cdc42: Q61L mutation of human Cdc42 (SEQ ID NO: 2), constitutively active Rho family GTPase protein, delivered by Chariot protein transduction”, in the test with NG108 cells, the “percentage of NG108 cells that cross the short axis of chondroitin sulfate GAG coverslip” value is on record as “approximately 50%”. Moreover, the “percentage of neurites that cross a laminin/aggrecan boundary” value in the test on NG108-15 cells (4 μg/mL, Chariot transduction, vs untransduced cells, FIG. 8) is on record as “statistically significant increase”; with NG108-15 cells (setting [1]) it was “statistically significant increase”. Besides, in the test on NG108-15 cells (1, 2, 3, 4 μg/mL, Chariot transduction, FIG. 8), the “dose dependence of neurite extension across laminin/CSPG boundary” value is “dose dependent increase”.

In the case of “dominant negative Cdc42: T17N Cdc42 dominant negative Rho family GTPase variant, GST protein”, the “percentage of neurites that cross a laminin/aggrecan boundary” value with NG108-15 cells (setting [1]) is listed as “did not significantly promote”.
